Experimental data taken from patent publication US8389679B2, “Targeted antimicrobial moieties” (priority 2009, dated 2013).
“Also recorded” adds a separate entry of the source.

Each substance was assayed on target microorganisms (assay: Screen of synthesized peptides for binding to target microorganisms (targeting peptides, Tables 2 and 3)). Details: microorganism(s) the targeting peptide was identified as binding to (Table 3).
Procedure: Once noted, these peptides were batch synthesized on a multiplex peptide synthesizer, yielding 5-10 mg of each peptide that could readily be screened for biological activity (e.g., binding activity and/or antimicrobial activity.
Other suitable targeting peptides include the peptides that have been identified as binding to particular target organisms as shown in Table 3 and/or Table 4.

Substance | Target(s)
1T-94 (DQVAHSGDMLVQARRRDS; synthetic novel tartgeting peptide IT-94) | S. mitis, S. mutans, S. oralis
1T-95 (GHLLRVGGRVGGVGGVAGACAQPFGGQ; synthetic novel tartgeting peptide IT-95) | S. gordonii, S. mitis, S. mutans,; also recorded: S. oralis, S. sanguinis
1T-96 (VAGACAQPFGGQ; synthetic novel tartgeting peptide IT-96) | S. gordonii, S. mitis, S. mutans,; also recorded: S. oralis, S. sanguinis
1T-97 (GVAERNLDRITVAVAIIWTITIVGLGLVAKLG; synthetic novel tartgeting peptide IT-97) | A. naeslundii, F. nucleatum,; also recorded: P. gingivalis; also recorded: S. epidermidis,; also recorded: S. gordonii, S. mitis, S. mutans,; also recorded: S. oralis, S. salivarious,; also recorded: S. sanguinis
1T-98 (VRSAKAVKALTAAGYTGELVNVSGGMKAWLGQ; synthetic novel tartgeting peptide IT-98) | A. naeslundii, F. nucleatum,; also recorded: P. gingivalis; also recorded: S. epidermidis,; also recorded: S. gordonii, S. mitis, S. mutans,; also recorded: S. oralis, S. salivarious,; also recorded: S. sanguinis
1T-99 (MKAWLGQ; synthetic novel tartgeting peptide IT-99) | S. gordonii, S. mitis, S. mutans,; also recorded: S. oralis, S. sanguinis
1T-100 (LDPLEPRIAPPGDRSHQGAPACHRDPLRGRSARDAER; synthetic novel tartgeting peptide IT-100) | S. gordonii, S. mitis, S. mutans
1T-101 (RLRVGRATDLPLTSFAVGVVRNLPDAPAH; synthetic novel tartgeting peptide IT-101) | A. naeslundii, P. gingivalis; also recorded: S. epidermidis,; also recorded: S. gordonii, S. mitis, S. mutans,; also recorded: S. oralis, S. sanguinis
1T-102 (WKRLWPARILAGHSRRRMRWMVVWRYFAAT; synthetic novel tartgeting peptide IT-102) | A. naeslundii, F. nucleatum,; also recorded: P. gingivalis; also recorded: S. epidermidis,; also recorded: S. gordonii, S. mitis, S. mutans,; also recorded: S. oralis, S. salivarious,; also recorded: S. sanguinis
1T-103 (AQFYEAIITGYALGAGQRIGQL; synthetic novel tartgeting peptide IT-103) | A. naeslundii, F. nucleatum,; also recorded: P. gingivalis; also recorded: S. epidermidis,; also recorded: S. gordonii, S. mitis, S. mutans,; also recorded: S. oralis, S. sanguinis
1T-104 (RAVAAHLQGRHHGHQVRRQRHGQR; synthetic novel tartgeting peptide IT-104) | S. mitis
1T-105 (GEGLPPPVLHLPPPRMSGR; synthetic novel tartgeting peptide IT-105) | S. epidermidis, S. gordonii,; also recorded: S. mitis, S. mutans,; also recorded: S. oralis
1T-106 (DALRRSRSQGRRHR; synthetic novel tartgeting peptide IT-106) | S. gordonii, S. mitis, S. mutans,; also recorded: S. oralis, S. salivarious
1T-107 (SPVPRFTAVGGVSRGSP; synthetic novel tartgeting peptide IT-107) | A. naeslundiiS. epidermidis,; also recorded: S. gordonii,; also recorded: S. mitis, S. mutans, S. oralis,; also recorded: S. salivarious, S. sanguinis
1T-108 (WGPLGPERPLW; synthetic novel tartgeting peptide IT-108) | S. gordonii, S. mitis, S. mutans,; also recorded: S. oralis, S. salivarious,; also recorded: S. sanguinis
1T-109 (VTTNVRQGAGS; synthetic novel tartgeting peptide IT-109) | A. naeslundiiS. epidermidis,; also recorded: S. gordonii,; also recorded: S. mitis, S. mutans, S. oralis,; also recorded: S. salivarious, S. sanguinis
1T-110 (LAAKTAVCVGRAFM; synthetic novel tartgeting peptide IT-110) | A. naeslundii, P. gingivalis; also recorded: S. epidermidis,; also recorded: S. gordonii, S. mitis, S. mutans,; also recorded: S. oralis, S. sanguinis
1T-111 (GRLSRREEDPATSIILLRGAYRMAVF; synthetic novel tartgeting peptide IT-111) | A. naeslundii, F. nucleatum,; also recorded: P. gingivalis; also recorded: S. epidermidis,; also recorded: S. gordonii, S. mitis, S. mutans,; also recorded: S. oralis, S. salivarious,; also recorded: S. sanguinis
1T-112 (SDNDGKLILGTSQ; synthetic novel tartgeting peptide IT-112) | S. gordonii
1T-113 (HGAHQRTGQRLHHHRGRTVSGCRQNPVAGVDPDEHR; synthetic novel tartgeting peptide IT-113) | S. mitis
1T-114 (RQAPGPGLVTITAACSAPGSRSR; synthetic novel tartgeting peptide IT-114) | A. naeslundii, P. gingivalis; also recorded: S. epidermidis,; also recorded: S. gordonii, S. mitis, S. mutans,; also recorded: S. oralis, S. sanguinis

Substance | Target(s)
1T-115 (LLIERFSNHH; synthetic novel tartgeting peptide IT-115) | A. naeslundii, F. nucleatum,; also recorded: P. gingivalis; also recorded: S. epidermidis,; also recorded: S. gordonii, S. mitis, S. mutans,; also recorded: S. oralis, S. salivarious,; also recorded: S. sanguinis
1T-116 (MILHRRRDR; synthetic novel tartgeting peptide IT-116) | A. naeslundii, P. gingivalis; also recorded: S. epidermidis,; also recorded: S. gordonii, S. mitis, S. mutans,; also recorded: S. oralis, S. salivarious,; also recorded: S. sanguinis
1T-117 (GPGVVGPAPFSRLPAHALNL; synthetic novel tartgeting peptide IT-117) | S. mutans
1T-118 (TASPPAPSDQGLRTAFPATLLIALAALARISR; synthetic novel tartgeting peptide IT-118) | A. naeslundii, F. nucleatum,; also recorded: P. gingivalis; also recorded: S. epidermidis,; also recorded: S. gordonii, S. mitis, S. mutans,; also recorded: S. oralis, S. salivarious,; also recorded: S. sanguinis
1T-119 (SPATQKAPTRAQPSRAPVQDCGDGRPTAAPDDVERLSPR; synthetic novel tartgeting peptide IT-119) | S. gordonii, S. mitis, S. mutans,; also recorded: S. oralis
1T-120 (DVRDRVDLAGADLCAAHATR; synthetic novel tartgeting peptide IT-120) | A. naeslundii, F. nucleatum,; also recorded: P. gingivalis; also recorded: S. epidermidis,; also recorded: S. gordonii, S. mitis, S. mutans,; also recorded: S. oralis, S. salivarious,; also recorded: S. sanguinis
1T-121 (FAKETGFGIGGAQEGWWIIADIYGPNPF; synthetic novel tartgeting peptide IT-121) | S. gordonii, S. mitis, S. mutans,; also recorded: S. oralis, S. salivarious,; also recorded: S. sanguinis
1T-122 (GAIPDPVTHRVDWEEDHQTRPSR; synthetic novel tartgeting peptide IT-122) | S. mitis
1T-123 (LVRRNAVAGRSDGLAGAEQLDLVRLQGVL; synthetic novel tartgeting peptide IT-123) | S. gordonii
1T-124 (LFDERNKIA; synthetic novel tartgeting peptide IT-124) | S. mitis, S. mutans, S. oralis
1T-125 (DAITGGNPPLSDTDGLRP; synthetic novel tartgeting peptide IT-125) | S. epidermidis, S. gordonii,; also recorded: S. mutans, S. oralis
1T-126 (QGLARPVLRRIPL; synthetic novel tartgeting peptide IT-126) | S. gordonii, S. mitis, S. mutans
1T-127 (YDPVPKRKNKNSEGKREE; synthetic novel tartgeting peptide IT-127) | A. naeslundii, F. nucleatum,; also recorded: P. gingivalis,; also recorded: T. denticolaS. gordonii,; also recorded: S. mitis, S. mutans, S. oralis,; also recorded: S. salivarious, S. sanguinis
1T-128 (SGSAIRMLEIATKMLKR; synthetic novel tartgeting peptide IT-128) | A. naeslundii, P. gingivalis; also recorded: S. epidermidis,; also recorded: S. gordonii, S. mitis, S. mutans,; also recorded: S. oralis, S. salivarious,; also recorded: S. sanguinis
1T-129 (YDKYIKYLSIQPPFIVYFI; synthetic novel tartgeting peptide IT-129) | A. naeslundii, P. gingivalis; also recorded: S. epidermidis,; also recorded: S. gordonii, S. mitis, S. mutans,; also recorded: S. oralis, S. salivarious,; also recorded: S. sanguinis
1T-130 (QKIIDMSKFLFSLILFIMIVVIYIGKSIGGYSAIVSSIMLELDTVLYNKKIFFIYK; synthetic novel tartgeting peptide IT-130) | A. naeslundii, F. nucleatum,; also recorded: P. gingivalis; also recorded: S. epidermidis,; also recorded: S. gordonii, S. mitis, S. mutans,; also recorded: S. oralis, S. salivarious,; also recorded: S. sanguinis
1T-131 (DEVWKMLGI; synthetic novel tartgeting peptide IT-131) | A. naeslundii, F. nucleatum,; also recorded: P. gingivalis,; also recorded: T. denticolaS. gordonii,; also recorded: S. mitis, S. mutans, S. oralis,; also recorded: S. salivarious, S. sanguinis
1T-132 (YSKKLFEYFYFIIFILIRYLIFYKIIQNKNYYINNIAYN; synthetic novel tartgeting peptide IT-132) | A. naeslundii, F. nucleatum,; also recorded: P. gingivalis; also recorded: S. epidermidis,; also recorded: S. gordonii, S. mitis, S. mutans,; also recorded: S. oralis, S. salivarious,; also recorded: S. sanguinis
1T-133 (YFIKDDNEALSKDWEVIGNDLKGTIDKYGKEFKVR; synthetic novel tartgeting peptide IT-133) | A. naeslundii, P. gingivalis; also recorded: S. epidermidis,; also recorded: S. gordonii, S. mitis, S. mutans,; also recorded: S. oralis, S. salivarious,; also recorded: S. sanguinis
1T-134 (SRLVREIKKKCRKS; synthetic novel tartgeting peptide IT-134) | A. naeslundii, F. nucleatum,; also recorded: P. gingivalis; also recorded: S. epidermidis,; also recorded: S. gordonii, S. mitis, S. mutans,; also recorded: S. oralis, S. salivarious,; also recorded: S. sanguinis
